Measured values from US20210138077A1, “SELECTIVE DRUG RELEASE FROM INTERNALIZED CONJUGATES OF BIOLOGICALLY ACTIVE COMPOUNDS” (Seagen Inc., priority 2019, published 2021).
Non-standard residues stand in square brackets, D forms with d. No end group written: not given here. Met(O) = CS(=O)CC[C@H](N)C(=O)O; Cit = NC(=O)NCCC[C@H](N)C(=O)O

How the values were obtained:
[1] = system: normal human bone marrow homogenate; assay: Fluorescence assay of tripeptide library: proteolysis by normal tissue homogenate; type: biochemical; conditions: for Normalized Normal Tissue: Table 1A, normalized fluorescence fold change at final time point (275-315 min), pH 4.5, 37° C.; for Normalized Normal: Table 1B, normalized fluorescence
Method: (§1) Fluorescence assay. To a 384 well plate was added a mixture of tumor or normal tissue homogenate and citrate buffer (100 mM, pH 4.5; 9 μL) followed by a fluorescently labelled library compound (1 μL; dissolved in 50% MeCN). The reaction was incubated at 37° C. and fluorescence (330 nm excitation, 450 nm emission) was detected several times over a 6-hr. period. The fluorescence fold change was determined by dividing the fluorescence value at each time point with the background fluorescence when no homogenate was added.
(§2) Tissue Homogenization. Normal tissue or tumor tissue from mouse xenografts were suspended in buffer (50 mM Tris, 150 mM KCl, pH 7.0) and added to a tube containing Matrix D lysing beads (mpbio). The tissue was homogenized with a Precellys™ 24 homogenizer. The homogenized sample was centrifuged at 1000×g for 10 min and the resulting supernatant was collected then frozen at −80° C. until further use.
(§3) The library members were synthesized on cellulose support according to the method by Hilpert, K. et al. in “Peptide arrays on cellulose support: SPOT synthesis, a time and cost efficient method for synthesis of large numbers of peptides in a parallel and addressable fashion”, Nature Protocols (2007) 2(6): 1333-1349, the method of which is specifically incorporated by reference herein, with one important modification. That modification uses laser-perforated cellulose paper so that synthesis of each library member occurs with a clearly defined circular disc. After SPOT synthesis, each circular area, which separately contains a discrete library member, is punched out by a multichannel pipette into individual wells of a microtiter plate. The microtiter plate is then placed into an ammonia chamber to cleave the tripeptide containing model compounds from the cellulose discs. The cleaved compounds were then transferred to a fresh microtiter plate after solubilizing each into 50% aqueous acetonitrile. The contents of the wells were then assessed for susceptibility to proteolysis by tumor tissue homogenate in comparison to a comparator peptide-based drug linker compound having the dipeptide val-cit, which is replaced by the -[P1]-[P2]-[P3]-tripeptides in the library of drug linker compounds, by measuring the fluorescence found in each of the wells of the library after contacting with tumor or normal tissue homogenate and dividing it by the fluorescence found for tumor or normal tissue homogenate cleavage of the comparator dipeptide-containing drug linker compound.
The normalized normal tissue fluorescence values are from proteolysis by normal human bone marrow. Human bone marrow was chosen as the normal tissue because it is the site of an adverse event (neutropenia) that has been associated with administering to a human subject in need thereof an effective amount of an Antibody Drug Conjugate having drug linker moieties derived from the Drug Linker compound m-val-cit-PABC-MMAE.
(§4) A normalized fluorescence value is calculated by dividing the fluorescence value at the final time point (275-315 min) from addition of a tissue homogenate by the fluorescence value when no tissue homogenate was added. That value was then normalized for each peptide in each homogenate by dividing it by the average value for that homogenate. […] The normalized tumor tissue values of Table 1 were then determined by averaging the normalized fluorescence value for each peptide across all 4 cancer homogenates that were tested. Those tumor homogenates were derived from xenograft models for HPAF-II (Nude mouse), Ramos (SCID mouse), SK-Mel-5 (Nude mouse) and SU-DHL-4 (SCID mouse). The normalized normal tissue values of Table 1 were similarly calculated using homogenized bone marrow. The Tumor/Normal ratios of Table 1A were determined by dividing the normalized tumor tissue values by the normalized normal tissue values.

[2] = system: tumor tissue homogenates derived from four mouse xenograft models (HPAF-II, Ramos, SK-Mel-5, SU-DHL-4); assay: Fluorescence assay of tripeptide library: proteolysis by tumor tissue homogenate; type: biochemical; conditions: for Normalized Tumor Tissue / Normalized Tumor: normalized fluorescence; for Normalized Tumor Tissue: averaged across 4 tumor homogenates (HPAF-II, Ramos, SK-Mel-5, SU-DHL-4); for Normalized Tumor: averaged across 4 tumor homogenates
Method: as §1, §2, §3
The normalized fluorescence value for tumor homogenate proteolysis is an averaged value for tumor tissue homogenates derived from four mouse xenograft models. Calculation of those normalized values are described following Table 1A.
as §4

[3] = Table 1A, normalized tumor tissue value divided by normalized normal tissue value
[4] = Table 1B, normalized tumor value divided by normalized normal value

| Substance | Normalized Normal Tissue [1] | Normalized Tumor Tissue ([2]; Table 1A) | Tumor/Normal [2, 3] | Normalized Normal [1] | Normalized Tumor ([2]; Table 1B) | Tumor/Normal [2, 4] |
| --- | --- | --- | --- | --- | --- | --- |
| Ala-Cit-Cit | 1.02 | 2.58 | 2.53 | – | – | – |
| Cit-Cit-Cit | 1.12 | 2.82 | 2.52 | – | – | – |
| Cit-Glu-Cit | 1.21 | 3.16 | 2.61 | – | – | – |
| DLeu-Leu-Cit | 1.37 | 3.70 | 2.70 | – | – | – |
| Glu-Ala-Glu | 1.05 | 2.66 | 2.53 | – | – | – |
| Glu-Glu-[Cit] | 1.22 | 3.14 | 2.57 | – | – | – |
| Lys-Glu-[Met(O)] | – | – | – | 0.70 | 1.16 | 1.66 |
| Pro-Ala-Glu | 0.78 | 2.48 | 3.16 | – | – | – |
| Pro-Ala-[Cit] | 1.07 | 3.03 | 2.84 | – | – | – |
| Pro-Cit-Cit | 0.95 | 2.54 | 2.67 | – | – | – |
| Pro-Glu-Ala | – | – | – | 0.70 | 1.28 | 1.84 |
| Pro-Glu-Glu | 0.73 | 1.87 | 2.58 | – | – | – |
| Pro-Glu-Lys | 0.72 | 1.85 | 2.57 | – | – | – |
| Pro-Glu-[Cit] | 0.85 | 2.35 | 2.77 | – | – | – |
| Pro-Lys-Glu | 0.72 | 1.88 | 2.59 | – | – | – |
| Pro-[Cit]-Glu | 0.85 | 2.27 | 2.68 | – | – | – |
| Thr-Cit-Cit | 0.89 | 2.26 | 2.53 | – | – | – |
| [Cit]-Glu-Glu | 0.97 | 2.44 | 2.53 | – | – | – |
| [dL]-Ala-Lys | – | – | – | 0.68 | 1.16 | 1.70 |
| [dL]-Glu-Lys | – | – | – | 0.62 | 1.06 | 1.71 |
| [dL]-Leu-Glu | 1.12 | 3.45 | 3.09 | – | – | – |
| [dL]-Leu-Lys | 0.87 | 2.20 | 2.54 | – | – | – |
| [dL]-Leu-[Met(O)] | 0.66 | 1.70 | 2.58 | 0.66 | 1.70 | 2.58 |
| [dL]-Phe-Glu | 0.89 | 2.27 | 2.55 | – | – | – |
| [dL]-[Cit]-Glu | – | – | – | 0.64 | 1.07 | 1.67 |
